Residue numbers refer to the chain shown, from its start. Numbers in names are those of the source. Entries after “also recorded” stand apart in the source; their conditions may differ.
T1: human ZnT8 R325 (R-form) (Homo sapiens, UniProt Q8IWU4)
T1 construct: The human ZnT8 cDNA insert was further subcloned into a pcDNA5/FRT/TO expression vector; made in house
T1 sequence (Q8IWU4 1-320 isoform Q8IWU4-2): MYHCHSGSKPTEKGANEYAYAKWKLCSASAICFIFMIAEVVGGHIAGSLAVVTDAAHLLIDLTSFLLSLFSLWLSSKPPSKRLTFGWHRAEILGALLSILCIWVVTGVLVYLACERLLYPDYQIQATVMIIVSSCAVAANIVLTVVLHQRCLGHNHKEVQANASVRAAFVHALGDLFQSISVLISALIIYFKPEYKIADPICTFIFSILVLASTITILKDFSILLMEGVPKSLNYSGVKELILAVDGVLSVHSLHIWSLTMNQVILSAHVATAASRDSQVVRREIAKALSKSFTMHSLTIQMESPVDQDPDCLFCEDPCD

T2: human ZnT8 W325 (W-form) (Homo sapiens, UniProt Q8IWU4, R325W)
T2 construct: The human ZnT8 cDNA insert was further subcloned into a pcDNA5/FRT/TO expression vector; made in house
T2 sequence (Q8IWU4 1-320 isoform Q8IWU4-2 R276W): T1 sequence (Q8IWU4 1-320 isoform Q8IWU4-2) with R276W

T3: human ZnT8 AA-form (H220A, D224A) (Homo sapiens, UniProt Q8IWU4, D224A/H220A)
T3 construct: The human ZnT8 cDNA insert was further subcloned into a pcDNA5/FRT/TO expression vector; made in house
T3 sequence (Q8IWU4 1-320 isoform Q8IWU4-2 H171A/D175A): T1 sequence (Q8IWU4 1-320 isoform Q8IWU4-2) with H171A, D175A

B1: AA-form: His-tagged human ZnT8 with H220A, D224A double mutation of the predicted transport-site (protein, UniProt Q8IWU4 1-369, looked up, variant H220A D224A)
Proton-coupled zinc …: MEFLERTYLVNDKAAKMYAFTLESVELQQKPVNKDQCPRERPEELESGGMYHCHSGSKPTEKGANEYAYAKWKLCSASAICFIFMIAEVVGGHIAGSLAVVTDAAHLLIDLTSFLLSLFSLWLSSKPPSKRLTFGWHRAEILGALLSILCIWVVTGVLVYLACERLLYPDYQIQATVMIIVSSCAVAANIVLTVVLHQRCLGHNHKEVQANASVRAAFVAALGALFQSISVLISALIIYFKPEYKIADPICTFIFSILVLASTITILKDFSILLMEGVPKSLNYSGVKELILAVDGVLSVHSLHIWSLTMNQVILSAHVATAASRDSQVVRREIAKALSKSFTMHSLTIQMESPVDQDPDCLFCEDPCD
modifications: His tag
notes: His-tagged human ZnT8 with H220A, D224A double mutation of the predicted transport-site

Assays:
human ZnT8 R325 (R-form) = target: T1, human ZnT8 R325 (R-form); test: Stopped-flow zinc transport kinetics in reconstituted proteoliposomes (Fluozin-3), R325 variant; format: biochemical; settings: for effect on zinc transport activity (Vmax), R-form: lipid in reconstituted proteoliposomes, reference level = Vmax of the AA-form; for increase of Vmax, R-form: third anionic phospholipid added to DOPC:DOPE (2:1), giving 2:1:1
Protocol: (§1) 24 hour after induction, early-passage cells (passage number <10) at 90% confluence were scraped on ice and collected in the assay buffer supplemented with complete mini EDTA free protease cocktail tablets as specified by the manufacturer (Sigma). Cell suspension was homogenized by 40 passages through a high-shear fluid processor at 120 psi (Microfluidics), and then the membrane fraction was pelleted by ultracentrifugation at 258k×g for 60 min. The membrane pellet was re-suspended in a solubilization buffer (assay buffer plus 25% glycerol). DDM was added to solubilize the membrane according to the weight of the membrane pellet at a DDM-to-membrane ratio of 1:5 (wt/wt). The membrane crude extract was cleared off debris by ultracentrifugation at 258k×g for 15 min. The supernatant was applied to Talon affinity resins (GE Healthcare) and incubated at 8° C. on a rotary shaker for 45 min. The resin was then minimally washed by solubilization buffer supplemented with 25 mM imidazole, and then the immobilized ZnT8 variant was eluted by increasing the imidazole concentration to 250 mM. The molecular identity of the eluted ZnT8 variant was validated by western blotting using two antibodies to the C-terminal His-tag (Cell signaling Technology, cat. #2365S, catalog number, 1:1000 dilution) and to a linear peptide epitope (Proteintech, cat. #16169-1-AP, 1:500 dilution), respectively. The purity of the eluted proteins was assessed by SDS-PAGE with imperial protein staining (Thermo Scientific). Preformed liposomes with a defined lipid composition as indicated were prepared by mixing stock solutions of lipids in chloroform. The lipid mixture was dried under a stream of nitrogen gas, and traces of chloroform were removed by placing the lipids under vacuum overnight at room temperature. Dried lipids were rehydrated in a Pyrex borosilicate glass tube with assay buffer to a lipid concentration of 50 mg/ml, and then sonicated in a cup-horn sonicator at 100 W for 2 min (cycles of 10 son, 10 s off) in an ice-chilled water bath. The resulting liposome suspension was diluted with assay buffer to a final lipid concentration of 7.5 mg/ml with DDM added at a DDM/lipids ratio of 1:1 (wt/wt). The DDM-liposome mixture was incubated at room temperature on a rotary shaker for ˜3 hours until a gel-like appearance occurred. Reconstitution of ZnT8 variants took place immediately after eluted from Talon resins by mixing a ZnT8 variant, or an equal volume of elution buffer, with DDM-destabilized preformed liposomes at an estimated protein-to-lipid wt/wt ratio of 1:200. The reconstitution mixture was incubated on a rotary shaker at 8° C. for 1 hr, then freshly prepared, methanol-washed polystyrene beads (Bio-Beads, SM-2, Bio-Rad) were added to the reconstitution mixture in a 60:1 wt/wt ratio to DDM. After incubation overnight at 8° C., the resulting proteoliposomes or liposomes (negative control) were separated from the detergent-soaked polystyrene beads, and pelleted by ultracentrifugation (258k×g, 2 hr). […]
(§2) Experiments were performed at 8° C. on a SFM-3000 stopped-flow apparatus (Bio-logic). […] The reactants were excited at 490 nm, and emissions were monitored at 525 nm using a 10 nm bandpass cut-off filter. Kinetic traces were recorded over a time course of 10 seconds with instrument offset and gain kept constant for all the experiments. […]

human ZnT8 W325 (W-form) = target: T2, human ZnT8 W325 (W-form); test: Stopped-flow zinc transport kinetics in reconstituted proteoliposomes (Fluozin-3), W325 variant; format: biochemical; settings: for effect on zinc transport activity (Vmax), W-form: lipid in reconstituted proteoliposomes, reference level = Vmax of the AA-form; for increase of Vmax, W-form: third anionic phospholipid added to DOPC:DOPE (2:1), giving 2:1:1
Protocol: as §1, §2

[1] = target: T3, human ZnT8 AA-form (H220A, D224A); test: Stopped-flow zinc transport kinetics in reconstituted proteoliposomes (Fluozin-3), AA-form; format: biochemical
Protocol: 24 hour after induction, early-passage cells (passage number <10) at 90% confluence were scraped on ice and collected in the assay buffer supplemented with complete mini EDTA free protease cocktail tablets as specified by the manufacturer (Sigma). Cell suspension was homogenized by 40 passages through a high-shear fluid processor at 120 psi (Microfluidics), and then the membrane fraction was pelleted by ultracentrifugation at 258k×g for 60 min. The membrane pellet was re-suspended in a solubilization buffer (assay buffer plus 25% glycerol). DDM was added to solubilize the membrane according to the weight of the membrane pellet at a DDM-to-membrane ratio of 1:5 (wt/wt). The membrane crude extract was cleared off debris by ultracentrifugation at 258k×g for 15 min. The supernatant was applied to Talon affinity resins (GE Healthcare) and incubated at 8° C. on a rotary shaker for 45 min. […] The purity of the eluted proteins was assessed by SDS-PAGE with imperial protein staining (Thermo Scientific). […]
as §2

HEK293 cells = test: Vesicular zinc uptake in real time (Zinpyr-1, 96-well microplate); format: cell-based, human; settings: 383 nM free zinc, 1 uM pyrithione, 15° C., induced expression
Protocol: The free zinc concentration in the ADA-EGTA dual buffering system was calculated using maxchelator (maxchelator.stanford.edu). Induced cells were loaded with Zinpry-1, trypsinized, resuspended in an ice-chilled plain uptake buffer with no ZnSO4 added. Cells with the expression of each ZnT8 variant or the empty vector were counted, adjusted to a density of 4×10^6 cells/ml, and dispensed in 50-[…] aliquots to a clear-bottom 96-well microplate (Greiner bio-one). Initial Zinpry-1 fluorescence (F0) was recorded from the bottom on a Flexstation-3 microplate reader (Molecular dynamics), and then zinc-uptakes were initiated by adding 50 ul uptake buffers with 2× free zinc concentrations to each well. The Zinpry-1 fluorescence increases in response to various free zinc concentrations were recorded at 15° C. in the kinetic mode of Flexstation over a time course of 10 min and normalized to Zinpyr-1 loading (F0). The fluorescence responses reached a linear phase in 2 min after the uptake temperature approached equilibrium. The rates of zinc uptake were calculated by linear regression of the Zinpyr-1 signals from 2 to 10 min. All measurements were performed in 12 replicates, and fluorescence readings were obtained by averaging over 8-10 measurements that gave consistent results. Most aberrant measurements occurred in the first and last two columns of the microplate due to pipetting errors.

Row | Molecule | effect on zinc transport activity (Vmax), R-form (human ZnT8 R325 (R-form)) | effect on zinc transport activity (Vmax), W-form (human ZnT8 W325 (W-form)) | increase of Vmax, R-form (human ZnT8 R325 (R-form)) | increase of Vmax, W-form (human ZnT8 W325 (W-form)) | also measured
1 | CCCCCCCC/C=C\CCCCCCCC(=O)OC[C@H](COP(=O)(O)OCCN)OC(=O)CCCCCCC/C=C\CCCCCCCC [DOPE, 1,2-di-(9Z-octadecenoyl)-sn-glycero-3-phosphoethanolamine] | progressively reduced the Vmax | modest effects |  |  | 
2 | CCCCCCCC/C=C\CCCCCCCC(=O)OC[C@H](COP(=O)(O)OCC(O)CO)OC(=O)CCCCCCC/C=C\CCCCCCCC (stereo partly shown) [DOPG] |  |  | 6.1 fold | 2.0 fold | 
3 | CCCCCCCC/C=C\CCCCCCCC(=O)OC[C@H](COP(=O)(O)OC[C@H](N)C(=O)O)OC(=O)CCCCCCC/C=C\CCCCCCCC [DOPS, 1,2-dioleoyl-sn-glycero-3-phospho-L-serine] |  |  | 3.5 fold | 2.3 fold | 
4 | CC(C)CCC[C@@H](C)[C@H]1CC[C@H]2[C@@H]3CC=C4C[C@@H](O)CC[C@]4(C)[C@H]3CC[C@]12C [cholesterol] | below the reference level of the AA-form; also recorded: strongly inhibit | below the reference level of the AA-form; also recorded: strongly inhibit |  |  | 
5 | Lysophosphatidylcholine [LPC] | below the reference level of the AA-form; also recorded: strongly inhibit | below the reference level of the AA-form; also recorded: strongly inhibit |  |  | 
6 | B1 |  |  |  |  | Km increase compared to the R-form [1]: 24 fold; Vmax/Km decrease compared to the R-form [1]: 59 fold; rate of vesicular zinc accumulation (HEK293 cells): significantly faster than the basal level of Blk

From US11016085B2, “ZNT8 assays for drug development and pharmaceutical compositions” (THE JOHNS HOPKINS UNIVERSITY, priority 2016, dated 2021)
